In patent US20100120063A1, “GPCR Arrestin Assays” (DISCOVERX CORPORATION, priority 2008, published 2010):
Each block holds one compound with its values, some of them ahead of it.

Experiments:
Assay type in all cases: cell-based
OPRM1-PK = target: T1, OPRM1-PK (Homo sapiens, UniProt P35372); assay: Arrestin-EA EFC agonist assay, U2OS cells expressing OPRM1-PK only
T1 construct: PK (beta-galactosidase ED); expressed in transfected cells; host or cells: U2OS

OPRD1-PK = target: T2, OPRD1-PK (Homo sapiens, UniProt P41143); assay: Arrestin-EA EFC agonist assay, CHO cells expressing OPRD1-PK (FIG. 12A)
T2 construct: cloning junction ISFEL + gly-ser linker […]; PK1 (mutated ED, H to R); expressed in transfected cells; host or cells: CHO
Method: (§2) For all assays, 10,000 cells per well were seeded in 20 μL media and incubated overnight in 1% Fetal Bovine Serum and appropriate basal media (F-12 or DMEM). For agonist assays, 5 μL compound was added to cells and incubated at Room Temp. […] Arrestin-EA complex formation with the GPCR was detected with 50% (v/v) of PathHunter Detection Reagent (Dx 93-0001, PathHunter reagents are available from DiscoveRx, Corp., Fremont, Calif.) (Lysis buffer active ingredient 2% CHAPS, Emerald II and Galacton star are from Applied Biosystems.) Data was read on Packard Victor 2 or PerkinElmer ViewLux readers and analyzed using GraphPad Prism 4.

OPRD1-PK and OPRM1 = target: T3, OPRD1-PK and OPRM1 (Homo sapiens, UniProt P35372); assay: Transactivation assay, CHO cells co-expressing OPRD1-PK and OPRM1 (FIG. 12C)
T3 construct: expressed in transfected cells; host or cells: CHO
Method: as §2

CHRM2 [1] = target: T4, CHRM2 (Homo sapiens, UniProt P08172); assay: Arrestin-EA / GPCR-PK β-galactosidase EFC screening assay, CHRM2 fused to mutated ED (PK1)
T4 construct: gly-ser flexible linker […]; expressed in transfected cells; host or cells: CHO
T4 sequence (P08172 1-466): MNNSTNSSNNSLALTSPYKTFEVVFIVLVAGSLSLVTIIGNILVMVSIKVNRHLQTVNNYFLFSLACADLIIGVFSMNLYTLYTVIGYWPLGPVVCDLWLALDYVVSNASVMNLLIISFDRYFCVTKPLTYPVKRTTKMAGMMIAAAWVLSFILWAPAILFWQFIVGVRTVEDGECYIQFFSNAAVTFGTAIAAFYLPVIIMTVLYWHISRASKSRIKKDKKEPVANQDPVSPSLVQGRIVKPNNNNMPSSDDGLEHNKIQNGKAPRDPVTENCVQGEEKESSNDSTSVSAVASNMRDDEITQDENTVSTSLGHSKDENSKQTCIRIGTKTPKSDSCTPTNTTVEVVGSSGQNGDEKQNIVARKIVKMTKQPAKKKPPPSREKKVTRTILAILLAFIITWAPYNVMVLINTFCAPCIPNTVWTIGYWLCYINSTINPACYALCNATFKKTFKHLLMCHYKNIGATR
Method: (§1) To perform the screening assay, 20 μl of cells in complete media or serum-free media (OPTI-MEM® Invitrogen Cat. #31985-070) were plated at 5, 10 and 15×10^3 cells per well in a white 384 well microplate and incubated at 37° C. overnight. Cells are allowed to adhere and grown overnight. Cells may be screened for their response in serum free or complete medium. Serial dilutions are then performed in serum-free medium or buffer for a volume of 25 μl. Depending on the candidate compound, the dilution may occur in the presence of 0.1% BSA or ≦1% final concentration of an organic solvent, e.g., DMSO and methanol. 5 μl of each candidate compound is added per well. The assay mixture is then incubated for 90 min at 37° C. 12.5 μl of the detection reagent is then added. The detection reagent is prepared by combining 1 part Galacton Star Substrate® with 5 parts Emerald II® Solution and 19 parts Path-Hunter Cell Assay Buffer (lysis buffer). The assay mixture is then incubated for 1 h at room temperature. Chemiluminescence is then read at 1.0 sec/well on PMT based instrument or 5-20 sec on an imager.

CHRM2 [2] = target: T4, CHRM2; assay: Arrestin-EA / GPCR-PK EFC screening assay, CHO Arrestin + CHRM2-PK2 (wild-type ED)
Method: as §1

CCKAR-PK [3] = target: T5, CCKAR-PK (Homo sapiens, UniProt P32238); assay: Arrestin-EA binding to CCKAR-PK in HEK cell line (FIG. 10B, 10D)
T5 construct: PK (beta-galactosidase ED); expressed in transfected cells; host or cells: HEK
T5 sequence (P32238 1-428): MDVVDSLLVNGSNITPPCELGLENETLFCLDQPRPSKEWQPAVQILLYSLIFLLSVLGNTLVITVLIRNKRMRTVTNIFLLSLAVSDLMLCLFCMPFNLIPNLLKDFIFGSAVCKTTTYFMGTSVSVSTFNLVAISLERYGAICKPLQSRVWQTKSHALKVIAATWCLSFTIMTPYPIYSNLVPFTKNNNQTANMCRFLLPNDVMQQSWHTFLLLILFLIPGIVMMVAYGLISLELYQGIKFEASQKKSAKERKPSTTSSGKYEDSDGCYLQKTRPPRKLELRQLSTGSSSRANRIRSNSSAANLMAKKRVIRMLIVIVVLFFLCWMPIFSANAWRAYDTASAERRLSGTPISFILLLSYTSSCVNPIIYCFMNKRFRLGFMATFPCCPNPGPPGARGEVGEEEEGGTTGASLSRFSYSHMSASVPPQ
Method: (§3) For all assays, 10,000 cells per well were seeded in 20 μL media and incubated overnight in 1% Fetal Bovine Serum and appropriate basal media (F-12 or DMEM). For agonist assays, 5 μL compound was added to cells and incubated at Room Temp. For antagonist assays, 5 μL 5× compound was added to cells and incubated at 37° C./5% CO2 for 10 minutes, after which 5 μL 6× agonist was added and incubated for 60 minutes at 37° C. Arrestin-EA complex formation with the GPCR was detected with 50% (v/v) of PathHunter Detection Reagent (Dx 93-0001, PathHunter reagents are available from DiscoveRx, Corp., Fremont, Calif.) (Lysis buffer active ingredient 2% CHAPS, Emerald II and Galacton star are from Applied Biosystems.) Data was read on Packard Victor 2 or PerkinElmer ViewLux readers and analyzed using GraphPad Prism 4.

CCKAR-PK [4] = target: T5, CCKAR-PK; assay: Calcium concentration in HEK cell line expressing CCKAR-PK and arrestin-EA (FIG. 10A, 10C)
OPRM1-PK and CCR2 = target: T6, OPRM1-PK and CCR2 (Homo sapiens, UniProt P41597); assay: Transactivation assay, U2OS cells co-expressing OPRM1-PK and CCR2 (FIG. 13A); conditions: CCR2 coexpressed with OPRM1-PK; FIG. 13 graph A
T6 construct: expressed in transfected cells; host or cells: U2OS
Method: as §2

OPRM1-PK and CCR5 = target: T7, OPRM1-PK and CCR5 (Homo sapiens, UniProt P51681); assay: Transactivation assay, U2OS cells co-expressing OPRM1-PK and CCR5 (FIG. 13B); conditions: CCR5 coexpressed with OPRM1-PK; FIG. 13 graph B
T7 construct: expressed in transfected cells; host or cells: U2OS
Method: as §3

[5] = curve fit, signal, U2OS OPRM1-PK only
[6] = curve fit, chemiluminescence signal, FIG. 4

T1 sequence (P35372 whole entry): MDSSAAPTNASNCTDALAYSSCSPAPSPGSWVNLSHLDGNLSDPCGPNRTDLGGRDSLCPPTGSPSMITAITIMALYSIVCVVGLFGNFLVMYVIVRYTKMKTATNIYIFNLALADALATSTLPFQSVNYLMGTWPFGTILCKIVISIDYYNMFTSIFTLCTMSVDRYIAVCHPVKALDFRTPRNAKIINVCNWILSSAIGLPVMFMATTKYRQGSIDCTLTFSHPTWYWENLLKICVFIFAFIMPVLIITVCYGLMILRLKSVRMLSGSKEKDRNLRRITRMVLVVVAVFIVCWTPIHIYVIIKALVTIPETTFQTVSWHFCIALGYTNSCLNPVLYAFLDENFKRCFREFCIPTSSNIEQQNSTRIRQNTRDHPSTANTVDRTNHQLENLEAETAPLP
T3 sequence (P35372 whole entry, species assumed): as the sequence (P35372 whole entry) above
T6 sequence (P41597 whole entry, species assumed): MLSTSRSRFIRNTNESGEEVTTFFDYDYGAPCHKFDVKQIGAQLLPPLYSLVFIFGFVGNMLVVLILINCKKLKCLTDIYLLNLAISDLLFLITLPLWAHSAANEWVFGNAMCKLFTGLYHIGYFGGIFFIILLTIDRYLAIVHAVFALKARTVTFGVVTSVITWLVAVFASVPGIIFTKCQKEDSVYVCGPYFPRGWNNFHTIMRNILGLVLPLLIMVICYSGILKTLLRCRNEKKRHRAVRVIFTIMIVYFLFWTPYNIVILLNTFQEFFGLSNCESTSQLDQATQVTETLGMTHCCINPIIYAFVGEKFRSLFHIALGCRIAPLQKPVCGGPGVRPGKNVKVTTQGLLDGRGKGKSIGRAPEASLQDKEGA
T7 sequence (P51681 whole entry, species assumed): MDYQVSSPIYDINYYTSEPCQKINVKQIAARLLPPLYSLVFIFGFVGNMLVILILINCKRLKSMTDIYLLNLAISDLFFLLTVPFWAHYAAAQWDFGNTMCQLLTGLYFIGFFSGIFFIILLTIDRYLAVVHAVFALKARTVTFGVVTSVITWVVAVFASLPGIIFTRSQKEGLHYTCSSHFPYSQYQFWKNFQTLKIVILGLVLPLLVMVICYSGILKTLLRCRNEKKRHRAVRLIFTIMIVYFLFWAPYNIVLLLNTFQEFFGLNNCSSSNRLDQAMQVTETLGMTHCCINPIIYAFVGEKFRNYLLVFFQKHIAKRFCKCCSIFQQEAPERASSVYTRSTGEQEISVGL

Compound: C[C@@H](NC(=O)[C@@H](N)Cc1ccc(O)cc1)C(=O)NCC(=O)N(C)[C@@H](Cc1ccccc1)C(=O)NCCO [DAMAGO, [D-Ala2,N-Me-Phe4,Gly5-ol]-enkephalin]
- HILLSLOPE (OPRM1-PK; U2OS OPRM1-PK only): 0.7069
- arrestin-EA binding response (OPRM1-PK; cells expressing only OPRM1-PK): presence of response
- TOP (OPRM1-PK; [5]): 10875
- HILLSLOPE (OPRD1-PK; FIG. 12A): 1.293
- response (OPRD1-PK; cells expressing only OPRD1-PK): absence of response
- BOTTOM (OPRD1-PK; curve fit, signal, FIG. 12A): 519.8
- TOP (OPRD1-PK; curve fit, signal, FIG. 12A): 2809
- HILLSLOPE (OPRD1-PK and OPRM1; FIG. 12C): 1.571
- transactivation response (OPRD1-PK and OPRM1; cells expressing OPRD1-PK and OPRM1): lack of response
- BOTTOM (OPRD1-PK and OPRM1; curve fit, signal, FIG. 12C): 20.31
- TOP (OPRD1-PK and OPRM1; curve fit, signal, FIG. 12C): 201.4
- S:B (OPRD1-PK and OPRM1; signal to background, FIG. 12C): [S:B = 31.9]

Compound: O=C1CCCN1CC#CCN1CCCC1 [oxotremorine]
- response with PK1 (CHRM2 [1]; CHRM2, FIG. 4): no response
- fold response with PK1 (CHRM2 [1]; CHRM2 fused to PK1, FIG. 1A): 1.4 fold
- S:B PK1 (CHRM2 [1]; signal to background ratio, CHRM2 fused to PK1, FIG. 1A): 1.6
- EC50 (CHRM2 [2]; FIG. 4): 6.29 µM
- HILLSLOPE (CHRM2 [2]; FIG. 4): 1.183
- response with PK2 (CHRM2 [2]; FIG. 4): robust response
- BOTTOM (CHRM2 [2]; [6]): 335.9
- TOP (CHRM2 [2]; [6]): 2037
- S:B PK2 (CHRM2 [2]; signal to background ratio, CHRM2 fused to PK2, FIG. 1B): 6.1

Compound: CC(C)C[C@@H](NC(=O)[C@H](Cc1ccccc1)NC(=O)CNC(=O)[C@@H](C)NC(=O)[C@@H](N)Cc1ccc(O)cc1)C(=O)O [DADLE]
- HILLSLOPE (OPRM1-PK; U2OS OPRM1-PK only): 1.483
- BOTTOM (OPRM1-PK; [5]): 625.6
- TOP (OPRM1-PK; [5]): 17070
- S:B (OPRM1-PK; signal to background, U2OS OPRM1-PK only): [S:B = 32.7]

- effect on the binding of arrestin-EA to CCKAR-PK (CCKAR-PK [3]): substantially no effect
- effect on calcium concentration (CCKAR-PK [4]): some effect
Compound: C[N+](C)(C)CCOC(N)=O [carbachol]

- transactivation response (OPRM1-PK and CCR2): no response
- transactivation response (OPRM1-PK and CCR5): no response
Compound: CCL3: ligand added to CCR5 cells
